Assay results reported in EP0311322B1, “Pyridine or pyridazine derivatives as cardio-protective agents and for the treatment of ischemic disease, and process for their preparation” (FUJISAWA PHARMACEUTICAL CO., LTD., priority 1987, dated 1989).

Tests used:
Male SD rats [1] = assay: Test 3: myocardial infarction induced by DL-isoproterenol hydrochloride in rats, mortality and myocardial ATP content; type: in vivo; conditions: dose 1.0 mg/kg intraperitoneally, DL-isoproterenol hydrochloride 120 mg/kg subcutaneously
Experimental: Ten male SD rats weighing 140-170 g were used for each group. Test compound was administered intraperitoneally, and then myocardial infarction was induced by administering DL-isoproterenol hydrochloride (120 mg/kg) subcutaneously. After 24 hours, mortality was examined. Survival rats were anesthetized and their hearts were taken out and frozen immediately for the measurement of myocardial ATP content.

male ddY mice = assay: Test 4: foot edema after occlusion of the right leg with a rubber band and release in mice; type: in vivo; conditions: 20 min occlusion, 20 min after cutting the band
Experimental: Five male ddY mice weighing 27-32 g were used for each group. After test compound was administered intravenously, the right leg was occluded by binding 10 times a rubber band (diameter : 42 mm) round it. After 20 minutes later, the rubber band was cut and thickness of foot pad was measured by a dial gage immediately and 20 minutes after cutting the band. The difference of these two values was regarded as edema.

Male SD rats [2] = assay: Test 2: left coronary artery occlusion (5 min) and reperfusion (10 min) in anesthetized rats, incidence of VT, VF and mortality; type: in vivo; conditions: 10 min before occlusion
Experimental: Male SD rats weighing 270-340 g were anesthetized with sodium pentobarbital. The chest was opened, and then a thread was placed around the left coronary artery near the origin. Both ends of the thread were passed through a small plastic tube. After standing for 5 minutes, test compound was administered intravenously. After 10 minutes, the left coronary artery was occluded for 5 minutes by pulling the thread and pressing the plastic tube to the artery and then reperfusion was achieved by releasing the occlusion for 10 minutes. Electrocardiograms were recorded and analyzed for checking inhibitory rate of incidence of ventricular tachycardia (VT) and ventricular fibrillation (VF) in comparison with control group, and inhibitory rate of mortality as compared with control group was also calculated. 11-18 rats were used for each test group.

[3] = test system: heart isolated from male guinea-pig; assay: Test 1: isolated guinea-pig heart perfused in the Langendorff mode, global ischemia (35 min) and reperfusion (40 min); conditions: for % change from control Cardiac depression (pre-ischemia) LVSP x HR: 15 min before ischemia; for % change from control recovery of ATP content (% increase): after 35 min ischemia and 40 min reperfusion
Experimental: The heart was isolated from male guinea-pig weighing 550-650 g and was perfused in the Langendorff mode at 37°C at a constant perfusion pressure of 80 cm H₂O. The perfusion medium was Krebs-Henseleit bicarbonate solution containing 11 mM glucose. The solution was equilibrated with 95% O₂ and 5% CO₂ gas mixture at pH 7.4. A latex balloon was placed in the left ventricular cavity and then left ventricular systolic (LVSP) and diastolic (LVDP) pressure were measured. Heart rate (HR) was triggered by the pulse pressure. Coronary flow was monitored with electromagnetic flow probe placed on the aorta.
The heart was perfused for 45 min. with the perfusion medium and then for 15 min. with the perfusion medium containing the test compound. The heart was then subjected to the global ischemia by stopping the perfusion. After 35 min. of ischemia, the heart was reperfused by the perfusion medium containing no test compound. At the end of 40 min. reperfusion, the cardiac function was monitored. The heart was immidiately frozen for the estimation of ATP content.

[4] = concentration 1 x 10⁻⁵ g/ml in perfusion medium

Row | SMILES | Inhibition (%) of foot edema (male ddY mice; dose 1.0 mg/kg intravenously) [%] | % change from control coronary flow ([3]; concentration 1 x 10⁻⁵ g/ml) [%] | % change from control Cardiac depression (pre-ischemia) LVSP x HR [3, 4] [%] | % change from control recovery of ATP content (% increase) ([3]; concentration 1 x 10⁻⁵ g/ml) [%] | further results
1 | Cc1nc(-c2ccccc2)cc(-c2cccc([N+](=O)[O-])c2)c1C(=O)NCCN1CCOCC1 [(a), 3-(2-Morpholinoethylcarbamoyl)-2-methyl-4-(3-nitrophenyl)-6-phenylpyridine] | 30 | 32.0 | -1.7 | 89.5 | Inhibition (%) of mortality (Male SD rats [1]; after 24 hours, % change as compared with mortality rate in control group): 75%; Recovery (%) of ATP content (Male SD rats [1]; myocardial ATP of surviving rats after 24 hours): 67%; Inhibition (%) of foot edema (male ddY mice; dose 0.1 mg/kg intravenously): 12%; Inhibition (%) of foot edema (male ddY mice; dose 10 mg/kg intravenously): 42%; Inhibition (%) of incidence as compared with control group Mortality (Male SD rats [2]; dose 1.0 mg/kg intravenously): 13.5%; Inhibition (%) of incidence as compared with control group VF (Male SD rats [2]; dose 1.0 mg/kg intravenously): 28.0%; Inhibition (%) of incidence as compared with control group VT (Male SD rats [2]; dose 1.0 mg/kg intravenously): 0%; Inhibition (%) of incidence as compared with control group Mortality (Male SD rats [2]; dose 3.2 mg/kg intravenously): 52.5%; Inhibition (%) of incidence as compared with control group VF (Male SD rats [2]; dose 3.2 mg/kg intravenously): 60.4%; Inhibition (%) of incidence as compared with control group VT (Male SD rats [2]; dose 3.2 mg/kg intravenously): 0%; Inhibition (%) of incidence as compared with control group Mortality (Male SD rats [2]; dose 10 mg/kg intravenously): 78.9%; Inhibition (%) of incidence as compared with control group VF (Male SD rats [2]; dose 10 mg/kg intravenously): 82.4%; Inhibition (%) of incidence as compared with control group VT (Male SD rats [2]; dose 10 mg/kg intravenously): 5.6%; % change from control coronary flow ([3]; concentration 1 x 10⁻⁶ g/ml): -1.6%; % change from control Cardiac depression (pre-ischemia) LVSP x HR ([3]; concentration 1 x 10⁻⁶ g/ml in perfusion medium): 4.1%; % change from control recovery of ATP content (% increase) ([3]; concentration 1 x 10⁻⁶ g/ml): 96.3%
2 | CN1CCN(Cc2nnc(-c3ccccc3)cc2-c2cccc([N+](=O)[O-])c2)CC1 [(b), 3-(4-Methylpiperazin-1-ylmethyl)-4-(3-nitrophenyl)-6-phenylpyridazine] |  | -30.6 | -95.8 | 100.4 | 
3 | Cc1cc(-c2ccccc2)nc(-c2cccc([N+](=O)[O-])c2)c1C(=O)NCCN1CCOCC1 [(c), 4-Methyl-3-(2-morpholinoethylcarbamoyl)-2-(3-nitrophenyl)-6-phenylpyridine] |  | 31.9 | -38.9 | 71.3 | 
4 | Cc1nc(-c2ccccc2)cc(-c2cccc([N+](=O)[O-])c2)c1C(=O)N1CCN(C)CC1 [(d), 2-Methyl-3-(4-methylpiperazin-1-ylcarbonyl)-4-(3-nitrophenyl)-6-phenylpyridine] | 41.5 | 5.0 | -29.7 | 123.6 | 
5 | Cc1nc(-c2ccccc2)cc(-c2cccc([N+](=O)[O-])c2)c1C(=O)NCCN(C)C [(e), 3-(2-Dimethylaminoethylcarbamoyl)-2-methyl-4-(3-nitrophenyl)-6-phenylpyridine] |  | -10.2 | -90.6 | 76.3 | 
6 | Cc1nc(-c2ccccc2)cc(-c2cccc([N+](=O)[O-])c2)c1C(=O)NCCN1CCSCC1.O=C(O)/C=C/C(=O)O [(f), 2-Methyl-4-(3-nitrophenyl)-6-phenyl-3-[2-(4-thiomorpholinyl)ethylcarbamoyl]pyridine fumarate] | 22 | 22.5 | -45.2 | 64.9 | 
7 | Cc1nc(-c2ccccc2)cc(-c2cccc([N+](=O)[O-])c2)c1NC(=O)NCCN(C)C [(g), 3-[3-(2-Dimethylaminoethyl)ureido]-2-methyl-4-(3-nitrophenyl)-6-phenylpyridine] |  | -42.7 | -85.7 | 78.6 | 
